In assay [1] the target is T1, Cannabinoid receptor 1 (Homo sapiens, UniProt P21554). In words: SAR analysis of agonists of the Cannabinoid Receptor 1 using an Image-Based Assay - Set 2. [Related pubchem assays (depositor defined):AID2013, AID2026]. The format is functional.
Assay [2] concerns the target T2, Cannabinoid receptor 2 (Homo sapiens, UniProt P34972). In words: SAR analysis of antagonists of the Cannabinoid Receptor 2 using an Image-Based Assay. [Related pubchem assays (depositor defined):AID2013, AID2026]. The format is functional.
Assay [3] addresses T3, G-protein coupled receptor 35 (Homo sapiens, UniProt Q9HC97). The assay can be described thus: SAR analysis of Agonists of the GPR35 Receptor using an Image-Based Assay - Set 2. [Related pubchem assays (depositor defined):AID2013, AID2026]. Format: functional.
The target in assay [4] is G-protein coupled receptor 55 (Homo sapiens, UniProt Q9Y2T6). In words: inhibition of LPI-stimulated GPR55 beta-arrestin translocation – imaging, U2OS, beta-arrestin-GFP, LPI agonist, primary screen (AID 2013).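 Also: antagonist potency measured as reduced agonist-driven arrestin aggregation.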 The format is functional.
The target in assay [5] is T3, G-protein coupled receptor 35. The assay can be described thus: SAR analysis of Antagonists of the GPR35 Receptor using an Image-Based Assay - Set 3. [Related pubchem assays (depositor defined):AID2013, AID2026]. The format is functional.
Assay [6] concerns the target T1, Cannabinoid receptor 1. The assay can be described thus: SAR analysis of antagonists of the Cannabinoid Receptor 1 using an Image-Based Assay - Set 2. [Related pubchem assays (depositor defined):AID2013, AID2026]. The format is functional.
Assay [7] deals with T2, Cannabinoid receptor 2. The assay can be described thus: SAR analysis of agonists of the Cannabinoid Receptor 2 using an Image-Based Assay. [Related pubchem assays (depositor defined):AID2013, AID2026]. Format: functional.
The target of assay [8] is Troponin, cardiac muscle (Homo sapiens, UniProt P19429+P45379+P63316). The assay can be described thus: Fluorescence-based biochemical high throughput dose response assay for activators of the calcium sensitivity of cardiac Regulated Thin Filaments (RTF). [Related pubchem assays (depositor defined):AID493008, AID493018, AID504382, AID504383]. Format: protein-complex assay.

A short description of assay [9]: toxicity toward cultured mammalian cells – cell-based, plate reader, cherry-pick samples, cytotoxicity control, dose response (AID 504397). Format: functional.
For assay [10], the target named is T4, Sphingosine 1-phosphate receptor 4 (Homo sapiens, UniProt O95977).
T4 sequence (O95977 whole entry): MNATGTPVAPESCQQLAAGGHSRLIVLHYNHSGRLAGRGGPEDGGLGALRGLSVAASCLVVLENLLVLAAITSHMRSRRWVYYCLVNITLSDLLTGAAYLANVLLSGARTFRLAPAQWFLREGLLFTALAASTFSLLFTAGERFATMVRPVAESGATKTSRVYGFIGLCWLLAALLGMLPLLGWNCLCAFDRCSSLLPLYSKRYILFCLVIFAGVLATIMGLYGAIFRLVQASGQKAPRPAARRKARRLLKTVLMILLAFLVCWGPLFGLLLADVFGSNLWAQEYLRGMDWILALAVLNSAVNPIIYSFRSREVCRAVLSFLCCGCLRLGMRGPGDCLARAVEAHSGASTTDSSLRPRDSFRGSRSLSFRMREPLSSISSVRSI
The assay can be described thus: Fluorescence dose response cell-based high throughput screening assay for agonists of the Sphingosine 1-Phosphate Receptor 4 (S1P4). [Related pubchem assays: 1509 (Primary screen.), 1523 (Confirmation screen in triplicates.)]. Format: functional.

For assay [11], the target named is Sphingosine 1-phosphate receptor 1 (Homo sapiens, UniProt P21453). The assay can be described thus: Fluorescence-based counterscreen assay for S1P4 agonists: Cell-based dose response high throughput screening assay to identify agonists of the Sphingosine 1-Phosphate Receptor 1 (S1P1). [Related pubchem assays (depositor defined):AID1509, AID1523, AID1801, AID463107, AID463118, AID463119, AID463122, AID463123, AID463129, AID463225, AID504400, AID504460]. Format: functional.

Active and inactive are the calls of the source. Where only a bound is given, the exact number is not on record here.

What is called EC50 is the concentration giving half of the maximal effect. In general, IC50 refers to the point on the concentration scale where inhibition reaches its midpoint. The term AC50 denotes the concentration at which the activity in the assay is half-maximal.

T3 sequence (Q9HC97 whole entry): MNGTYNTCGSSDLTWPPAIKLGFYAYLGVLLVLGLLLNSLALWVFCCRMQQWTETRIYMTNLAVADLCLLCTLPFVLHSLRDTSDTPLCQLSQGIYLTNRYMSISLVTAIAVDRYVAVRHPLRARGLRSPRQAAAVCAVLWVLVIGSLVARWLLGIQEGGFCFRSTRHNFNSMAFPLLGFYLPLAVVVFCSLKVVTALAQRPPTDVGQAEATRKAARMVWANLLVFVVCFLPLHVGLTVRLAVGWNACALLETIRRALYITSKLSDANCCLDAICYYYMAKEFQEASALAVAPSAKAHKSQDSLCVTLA
T2 sequence (P34972 whole entry): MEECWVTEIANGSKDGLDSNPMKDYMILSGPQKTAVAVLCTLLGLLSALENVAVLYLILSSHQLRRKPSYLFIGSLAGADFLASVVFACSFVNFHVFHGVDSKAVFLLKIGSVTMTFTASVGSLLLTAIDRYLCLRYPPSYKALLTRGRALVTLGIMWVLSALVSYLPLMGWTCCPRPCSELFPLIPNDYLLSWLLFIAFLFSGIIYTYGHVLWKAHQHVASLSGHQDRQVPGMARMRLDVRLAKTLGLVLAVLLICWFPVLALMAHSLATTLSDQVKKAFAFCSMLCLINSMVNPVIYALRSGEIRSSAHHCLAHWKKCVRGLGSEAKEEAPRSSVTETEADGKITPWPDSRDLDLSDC
T1 sequence (P21554 whole entry): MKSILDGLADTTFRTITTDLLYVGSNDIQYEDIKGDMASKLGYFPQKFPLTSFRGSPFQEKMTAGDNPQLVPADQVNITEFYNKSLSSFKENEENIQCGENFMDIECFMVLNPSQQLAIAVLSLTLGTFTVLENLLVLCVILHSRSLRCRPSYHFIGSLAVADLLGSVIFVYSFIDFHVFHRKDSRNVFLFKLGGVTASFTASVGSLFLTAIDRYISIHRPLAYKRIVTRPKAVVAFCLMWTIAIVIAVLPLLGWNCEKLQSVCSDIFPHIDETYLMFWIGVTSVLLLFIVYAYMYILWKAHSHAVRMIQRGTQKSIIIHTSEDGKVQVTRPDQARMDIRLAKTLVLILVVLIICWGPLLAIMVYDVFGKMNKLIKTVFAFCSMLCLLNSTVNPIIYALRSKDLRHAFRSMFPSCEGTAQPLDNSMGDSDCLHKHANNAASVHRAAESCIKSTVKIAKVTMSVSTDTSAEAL
Sequence of G-protein coupled receptor 55 (Q9Y2T6 whole entry): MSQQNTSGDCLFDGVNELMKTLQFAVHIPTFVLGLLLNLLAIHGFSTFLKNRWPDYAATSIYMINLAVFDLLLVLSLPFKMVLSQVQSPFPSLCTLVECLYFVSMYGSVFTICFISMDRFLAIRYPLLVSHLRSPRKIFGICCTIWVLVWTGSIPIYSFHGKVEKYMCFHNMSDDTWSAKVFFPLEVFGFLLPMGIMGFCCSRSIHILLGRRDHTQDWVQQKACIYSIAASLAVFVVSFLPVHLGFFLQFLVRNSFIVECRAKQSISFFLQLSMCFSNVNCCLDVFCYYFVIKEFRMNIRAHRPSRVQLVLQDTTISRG
Sequence of Sphingosine 1-phosphate receptor 1 (P21453 whole entry): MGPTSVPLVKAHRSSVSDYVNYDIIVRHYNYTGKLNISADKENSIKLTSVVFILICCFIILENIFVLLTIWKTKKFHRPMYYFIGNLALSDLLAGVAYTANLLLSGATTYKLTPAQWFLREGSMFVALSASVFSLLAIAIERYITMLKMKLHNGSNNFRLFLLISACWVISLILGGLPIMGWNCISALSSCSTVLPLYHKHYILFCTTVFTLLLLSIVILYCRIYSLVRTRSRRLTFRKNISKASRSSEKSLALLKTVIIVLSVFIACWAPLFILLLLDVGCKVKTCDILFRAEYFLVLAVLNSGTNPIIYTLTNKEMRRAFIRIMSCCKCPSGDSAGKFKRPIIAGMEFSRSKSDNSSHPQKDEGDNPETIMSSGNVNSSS

`Cc1ccc(C2(C(=O)N3CCC(n4nc(-c5ccccc5)oc4=O)CC3)CC2)cc1`: the EC50 in assay [1], in assay [3] and in [7] was > 32 µM (inactive) in each case. The IC50 in assay [2] was > 32 µM (inactive); in assay [4], 4.28 µM (active); in assay [5], > 32 µM (inactive); in [6], 17.7 µM (inactive).
`O=C(NC1CCCCC1)c1cc2nc3c(c(C(F)(F)F)n2n1)CCCC3`: the EC50 in assay [8] is > 71.5 µM (inactive).
Regarding `C=CCn1c(SCc2ccc(C#N)cc2)nnc1-c1ccc(C)cc1`, the AC50 in assay [9] was 98.3 µM (active).
For the molecule `CC(=O)c1cc2ccc(O)cc2oc1=O`, the EC50 in assay [10] is 1.88 µM (active); in [11] it was 4.14 µM (active).

For the origin of these results see ChEMBL document CHEMBL1201862, “PubChem BioAssay data set” (2004).
